From PMC6407913, “DREADD Agonist 21 Is an Effective Agonist for Muscarinic-Based DREADDs in Vitro and in Vivo” (ACS Pharmacology & Translational Science, 2018)
“And” between values parts separate entries of the source, which are not always exact repeats. Equal values may be shown once.

Tests used:
Type in all cases: cell-based
[1] = molecular target: T1, 318 nonolfactory human GPCRs (Homo sapiens, UniProt P50052); details: AGTR2; C21 5 µM
T1 construct: expressed in transfected cells; host or cells: HTLA cells, transient

[2] = molecular target: T2, 318 nonolfactory human GPCRs (Homo sapiens, UniProt P46089); details: GPR3; C21 5 µM
T2 construct: expressed in transfected cells; host or cells: HTLA cells, transient

[3] = molecular target: T3, 318 nonolfactory human GPCRs (Homo sapiens, UniProt P30559); details: OXTR; C21 5 µM
T3 construct: expressed in transfected cells; host or cells: HTLA cells, transient

[4] = molecular target: T4, 318 nonolfactory human GPCRs (Homo sapiens, UniProt O15552); details: FFA2; C21 5 µM
T4 construct: expressed in transfected cells; host or cells: HTLA cells, transient

[5] = molecular target: T5, 318 nonolfactory human GPCRs (Homo sapiens, UniProt Q9BXC1); details: GPR174; C21 5 µM
T5 construct: expressed in transfected cells; host or cells: HTLA cells, transient

[6] = molecular target: T6, 318 nonolfactory human GPCRs (Homo sapiens, UniProt Q96G91); details: P2RY11; C21 5 µM
T6 construct: expressed in transfected cells; host or cells: HTLA cells, transient

[7] = molecular target: T7, 318 nonolfactory human GPCRs (Homo sapiens, UniProt P32245); details: MC4R; C21 5 µM
T7 construct: expressed in transfected cells; host or cells: HTLA cells, transient

[8] = molecular target: T8, 318 nonolfactory human GPCRs (Homo sapiens, UniProt P32247); details: BB3; C21 5 µM
T8 construct: expressed in transfected cells; host or cells: HTLA cells, transient

[9] = molecular target: T9, 318 nonolfactory human GPCRs (Homo sapiens, UniProt P28336); details: NMBR; C21 5 µM
T9 construct: expressed in transfected cells; host or cells: HTLA cells, transient

[10] = molecular target: T10, 318 nonolfactory human GPCRs (Homo sapiens, UniProt P30939); details: HTR1F; C21 5 µM
T10 construct: expressed in transfected cells; host or cells: HTLA cells, transient

[11] = molecular target: T11, 318 nonolfactory human GPCRs (Homo sapiens, UniProt P51685); details: CCR8; C21 5 µM
T11 construct: expressed in transfected cells; host or cells: HTLA cells, transient

[12] = molecular target: T12, 318 nonolfactory human GPCRs (Homo sapiens, UniProt Q9BXA5); details: SUCNR1; C21 5 µM
T12 construct: expressed in transfected cells; host or cells: HTLA cells, transient

[13] = molecular target: 318 nonolfactory human GPCRs (Homo sapiens, UniProt Q8TDS4); details: HCA2; C21 5 µM
[14] = molecular target: T13, 318 nonolfactory human GPCRs (Homo sapiens, UniProt P35367); details: HRH1; C21 5 µM
T13 construct: expressed in transfected cells; host or cells: HTLA cells, transient

[15] = molecular target: T14, 318 nonolfactory human GPCRs (Homo sapiens, UniProt P25024); details: CXCR1; C21 5 µM
T14 construct: expressed in transfected cells; host or cells: HTLA cells, transient

[16] = molecular target: T15, 318 nonolfactory human GPCRs (Homo sapiens, UniProt Q99679); details: GPR21; C21 5 µM
T15 construct: expressed in transfected cells; host or cells: HTLA cells, transient

[17] = molecular target: T16, 318 nonolfactory human GPCRs (Homo sapiens, UniProt P29274); details: ADORA2A; C21 5 µM
T16 construct: expressed in transfected cells; host or cells: HTLA cells, transient

[18] = molecular target: 318 nonolfactory human GPCRs (Homo sapiens, UniProt P21462); details: FPR1; C21 5 µM
[19] = molecular target: 318 nonolfactory human GPCRs (Homo sapiens, UniProt P28223); details: HTR2A; C21 5 µM
[20] = molecular target: 318 nonolfactory human GPCRs (Homo sapiens, UniProt P14416); details: DRD2; C21 5 µM
[21] = molecular target: T17, 318 nonolfactory human GPCRs (Homo sapiens, UniProt Q8IZP9); details: GPR64; C21 5 µM
T17 construct: expressed in transfected cells; host or cells: HTLA cells, transient

[22] = molecular target: T18, 318 nonolfactory human GPCRs (Homo sapiens, UniProt P32241); details: VIPR1; C21 5 µM
T18 construct: expressed in transfected cells; host or cells: HTLA cells, transient

[23] = molecular target: 318 nonolfactory human GPCRs (Homo sapiens, UniProt P21728); details: DRD1; C21 5 µM
[24] = molecular target: T19, 318 nonolfactory human GPCRs (Homo sapiens, UniProt Q96P67); details: GPR82; C21 5 µM
T19 construct: expressed in transfected cells; host or cells: HTLA cells, transient

[25] = molecular target: T20, 318 nonolfactory human GPCRs (Homo sapiens, UniProt P41594); details: GRM5; C21 5 µM
T20 construct: expressed in transfected cells; host or cells: HTLA cells, transient

[26] = molecular target: T21, 318 nonolfactory human GPCRs (Homo sapiens, UniProt Q8TDV0); details: GPR151; C21 5 µM
T21 construct: expressed in transfected cells; host or cells: HTLA cells, transient

[27] = molecular target: T22, 318 nonolfactory human GPCRs (Homo sapiens, UniProt Q9P296); details: GPR77; C21 5 µM
T22 construct: expressed in transfected cells; host or cells: HTLA cells, transient

[28] = molecular target: 318 nonolfactory human GPCRs (Homo sapiens, UniProt P46093); details: GPR4; C21 5 µM
[29] = molecular target: 318 nonolfactory human GPCRs (Homo sapiens, UniProt P30872); details: SSTR1; C21 5 µM
[30] = molecular target: T23, 318 nonolfactory human GPCRs (Homo sapiens, UniProt Q99705); details: MCHR1R; C21 5 µM
T23 construct: expressed in transfected cells; host or cells: HTLA cells, transient

[31] = molecular target: T24, 318 nonolfactory human GPCRs (Homo sapiens, UniProt Q01718); details: MC2R; C21 5 µM
T24 construct: expressed in transfected cells; host or cells: HTLA cells, transient

[32] = molecular target: T25, 318 nonolfactory human GPCRs (Homo sapiens, UniProt Q14439); details: GPR176; C21 5 µM
T25 construct: expressed in transfected cells; host or cells: HTLA cells, transient

[33] = molecular target: T26, 318 nonolfactory human GPCRs (Homo sapiens, UniProt O95800); details: GPR75; C21 5 µM
T26 construct: expressed in transfected cells; host or cells: HTLA cells, transient

[34] = molecular target: 318 nonolfactory human GPCRs (Homo sapiens, UniProt P41595); details: HTR2B; C21 5 µM

T24 sequence (Q01718 whole entry): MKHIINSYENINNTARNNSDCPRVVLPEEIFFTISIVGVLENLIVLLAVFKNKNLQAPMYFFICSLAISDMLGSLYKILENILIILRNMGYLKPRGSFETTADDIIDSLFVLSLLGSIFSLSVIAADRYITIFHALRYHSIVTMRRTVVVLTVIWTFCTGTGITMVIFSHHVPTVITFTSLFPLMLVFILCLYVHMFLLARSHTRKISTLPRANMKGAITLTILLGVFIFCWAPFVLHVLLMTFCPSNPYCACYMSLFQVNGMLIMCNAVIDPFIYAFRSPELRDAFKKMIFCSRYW
T23 sequence (Q99705 whole entry): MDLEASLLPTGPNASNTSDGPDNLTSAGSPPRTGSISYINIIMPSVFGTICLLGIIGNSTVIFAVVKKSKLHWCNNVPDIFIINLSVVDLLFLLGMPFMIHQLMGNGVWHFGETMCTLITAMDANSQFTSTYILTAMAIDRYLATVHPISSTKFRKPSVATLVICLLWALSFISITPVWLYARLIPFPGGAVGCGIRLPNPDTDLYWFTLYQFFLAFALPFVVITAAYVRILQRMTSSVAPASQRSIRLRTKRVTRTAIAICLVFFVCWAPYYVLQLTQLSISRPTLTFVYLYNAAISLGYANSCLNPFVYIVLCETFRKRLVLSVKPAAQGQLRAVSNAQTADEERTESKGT
T4 sequence (O15552 whole entry): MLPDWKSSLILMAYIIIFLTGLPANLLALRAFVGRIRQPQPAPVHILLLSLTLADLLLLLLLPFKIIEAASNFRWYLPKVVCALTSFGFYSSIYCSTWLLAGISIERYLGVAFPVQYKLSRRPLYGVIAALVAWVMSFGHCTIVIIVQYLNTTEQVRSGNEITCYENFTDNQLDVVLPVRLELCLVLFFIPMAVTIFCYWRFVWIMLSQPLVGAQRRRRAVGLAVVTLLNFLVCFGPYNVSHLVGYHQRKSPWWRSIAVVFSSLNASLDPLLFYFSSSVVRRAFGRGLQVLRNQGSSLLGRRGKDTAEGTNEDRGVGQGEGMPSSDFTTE
T15 sequence (Q99679 whole entry): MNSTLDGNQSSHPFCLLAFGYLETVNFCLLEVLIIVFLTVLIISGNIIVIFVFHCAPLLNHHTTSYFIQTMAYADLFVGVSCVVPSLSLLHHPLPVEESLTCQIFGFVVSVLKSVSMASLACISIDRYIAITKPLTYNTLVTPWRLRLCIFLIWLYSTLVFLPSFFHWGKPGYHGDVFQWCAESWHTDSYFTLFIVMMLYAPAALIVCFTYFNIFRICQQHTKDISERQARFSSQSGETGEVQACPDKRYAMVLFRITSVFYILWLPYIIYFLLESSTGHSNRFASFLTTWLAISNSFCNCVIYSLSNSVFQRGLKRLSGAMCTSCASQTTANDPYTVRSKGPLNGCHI
T3 sequence (P30559 whole entry): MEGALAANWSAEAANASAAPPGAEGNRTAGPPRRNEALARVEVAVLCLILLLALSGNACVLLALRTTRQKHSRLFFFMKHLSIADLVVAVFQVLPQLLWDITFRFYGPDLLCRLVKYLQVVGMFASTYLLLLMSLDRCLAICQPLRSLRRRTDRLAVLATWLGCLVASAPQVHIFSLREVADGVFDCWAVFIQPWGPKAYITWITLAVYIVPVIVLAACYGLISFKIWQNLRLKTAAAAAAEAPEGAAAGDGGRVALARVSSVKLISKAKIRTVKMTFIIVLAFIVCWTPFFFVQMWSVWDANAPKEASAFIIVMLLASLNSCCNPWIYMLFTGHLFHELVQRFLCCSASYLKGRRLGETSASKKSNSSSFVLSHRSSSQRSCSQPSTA
T13 sequence (P35367 whole entry): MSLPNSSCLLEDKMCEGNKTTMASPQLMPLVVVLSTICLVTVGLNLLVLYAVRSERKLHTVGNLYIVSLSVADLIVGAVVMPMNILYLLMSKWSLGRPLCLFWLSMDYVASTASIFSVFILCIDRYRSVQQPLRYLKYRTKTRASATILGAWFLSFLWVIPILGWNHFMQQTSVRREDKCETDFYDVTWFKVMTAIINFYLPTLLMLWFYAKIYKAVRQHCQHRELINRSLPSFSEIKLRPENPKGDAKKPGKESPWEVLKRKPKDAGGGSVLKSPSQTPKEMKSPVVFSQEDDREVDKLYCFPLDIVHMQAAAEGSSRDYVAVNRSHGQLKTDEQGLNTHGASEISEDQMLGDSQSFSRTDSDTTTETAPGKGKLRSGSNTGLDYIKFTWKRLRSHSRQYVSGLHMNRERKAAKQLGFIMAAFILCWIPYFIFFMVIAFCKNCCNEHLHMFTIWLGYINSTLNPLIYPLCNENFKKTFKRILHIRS
T10 sequence (P30939 whole entry): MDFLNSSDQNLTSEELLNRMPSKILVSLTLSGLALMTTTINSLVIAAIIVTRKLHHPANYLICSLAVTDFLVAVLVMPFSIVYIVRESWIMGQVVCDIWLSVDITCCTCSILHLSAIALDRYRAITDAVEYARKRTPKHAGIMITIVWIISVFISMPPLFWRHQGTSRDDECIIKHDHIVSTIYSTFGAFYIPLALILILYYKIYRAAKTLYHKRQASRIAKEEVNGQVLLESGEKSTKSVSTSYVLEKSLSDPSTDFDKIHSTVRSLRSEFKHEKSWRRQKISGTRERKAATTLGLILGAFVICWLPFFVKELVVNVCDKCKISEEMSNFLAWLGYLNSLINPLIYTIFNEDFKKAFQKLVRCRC
Sequence of 318 nonolfactory human GPCRs (Homo sapiens, UniProt P46093) (P46093 whole entry): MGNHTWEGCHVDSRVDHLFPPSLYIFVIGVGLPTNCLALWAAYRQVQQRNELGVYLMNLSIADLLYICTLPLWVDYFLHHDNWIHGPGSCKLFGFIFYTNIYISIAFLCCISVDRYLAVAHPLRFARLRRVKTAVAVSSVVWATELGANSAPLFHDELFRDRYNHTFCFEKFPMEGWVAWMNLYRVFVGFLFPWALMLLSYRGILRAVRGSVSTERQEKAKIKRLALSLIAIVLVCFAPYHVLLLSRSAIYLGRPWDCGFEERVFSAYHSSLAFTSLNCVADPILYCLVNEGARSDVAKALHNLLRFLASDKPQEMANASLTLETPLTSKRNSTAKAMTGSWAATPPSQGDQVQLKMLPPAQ
T6 sequence (Q96G91 whole entry): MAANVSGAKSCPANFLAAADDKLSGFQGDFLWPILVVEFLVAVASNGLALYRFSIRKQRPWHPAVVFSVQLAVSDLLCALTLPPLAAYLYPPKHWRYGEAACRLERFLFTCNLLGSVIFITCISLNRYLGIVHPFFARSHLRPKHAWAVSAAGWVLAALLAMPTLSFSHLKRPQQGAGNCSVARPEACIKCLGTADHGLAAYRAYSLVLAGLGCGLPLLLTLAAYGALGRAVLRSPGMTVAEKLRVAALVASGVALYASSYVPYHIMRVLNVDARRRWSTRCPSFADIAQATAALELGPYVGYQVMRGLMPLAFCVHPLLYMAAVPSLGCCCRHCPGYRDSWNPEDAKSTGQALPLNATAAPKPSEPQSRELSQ
Sequence of 318 nonolfactory human GPCRs (Homo sapiens, UniProt P14416) (P14416 whole entry): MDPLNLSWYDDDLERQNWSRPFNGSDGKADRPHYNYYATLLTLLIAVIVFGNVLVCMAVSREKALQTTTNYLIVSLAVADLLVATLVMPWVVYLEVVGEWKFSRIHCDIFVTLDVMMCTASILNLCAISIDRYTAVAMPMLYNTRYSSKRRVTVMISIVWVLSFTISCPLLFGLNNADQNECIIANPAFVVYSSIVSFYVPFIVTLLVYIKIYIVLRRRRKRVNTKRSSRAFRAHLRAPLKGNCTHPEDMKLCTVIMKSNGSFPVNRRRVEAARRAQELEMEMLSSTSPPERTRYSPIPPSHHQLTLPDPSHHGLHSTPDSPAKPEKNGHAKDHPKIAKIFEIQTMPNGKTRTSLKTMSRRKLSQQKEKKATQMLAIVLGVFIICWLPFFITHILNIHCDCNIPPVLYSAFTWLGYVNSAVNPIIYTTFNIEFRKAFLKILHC
Sequence of 318 nonolfactory human GPCRs (Homo sapiens, UniProt P30872) (P30872 whole entry): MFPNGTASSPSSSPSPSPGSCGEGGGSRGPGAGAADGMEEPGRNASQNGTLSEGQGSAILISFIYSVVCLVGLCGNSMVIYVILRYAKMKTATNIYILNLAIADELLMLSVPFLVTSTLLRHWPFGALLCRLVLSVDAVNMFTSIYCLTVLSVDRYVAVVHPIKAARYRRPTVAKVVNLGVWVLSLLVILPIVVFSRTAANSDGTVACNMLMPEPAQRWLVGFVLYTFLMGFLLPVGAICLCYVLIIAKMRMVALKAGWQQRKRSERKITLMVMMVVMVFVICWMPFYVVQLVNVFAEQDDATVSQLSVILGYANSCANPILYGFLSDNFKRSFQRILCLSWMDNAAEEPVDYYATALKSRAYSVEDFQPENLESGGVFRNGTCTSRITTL
T16 sequence (P29274 whole entry): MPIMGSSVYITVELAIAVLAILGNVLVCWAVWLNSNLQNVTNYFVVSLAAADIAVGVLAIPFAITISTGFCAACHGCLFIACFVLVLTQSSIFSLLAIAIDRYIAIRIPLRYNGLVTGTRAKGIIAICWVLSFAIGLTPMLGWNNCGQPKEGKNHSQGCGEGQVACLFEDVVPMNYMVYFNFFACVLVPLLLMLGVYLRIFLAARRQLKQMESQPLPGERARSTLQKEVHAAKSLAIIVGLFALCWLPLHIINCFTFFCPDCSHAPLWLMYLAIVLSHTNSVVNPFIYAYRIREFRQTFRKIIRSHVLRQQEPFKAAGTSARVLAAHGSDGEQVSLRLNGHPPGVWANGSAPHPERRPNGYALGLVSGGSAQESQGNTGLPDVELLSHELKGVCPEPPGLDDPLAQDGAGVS
Sequence of 318 nonolfactory human GPCRs (Homo sapiens, UniProt Q8TDS4) (Q8TDS4 whole entry): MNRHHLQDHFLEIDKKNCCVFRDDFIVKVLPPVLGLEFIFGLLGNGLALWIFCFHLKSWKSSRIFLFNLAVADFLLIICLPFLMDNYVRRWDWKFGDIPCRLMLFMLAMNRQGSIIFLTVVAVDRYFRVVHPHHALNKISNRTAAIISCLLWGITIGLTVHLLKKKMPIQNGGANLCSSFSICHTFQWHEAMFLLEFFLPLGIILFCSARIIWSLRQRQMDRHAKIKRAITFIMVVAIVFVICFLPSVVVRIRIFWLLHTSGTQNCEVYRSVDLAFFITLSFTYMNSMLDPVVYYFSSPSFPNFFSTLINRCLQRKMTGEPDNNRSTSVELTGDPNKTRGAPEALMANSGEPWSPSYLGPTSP

SMILES: c1ccc2c(c1)N=C(N1CCNCC1)c1ccccc1N2 [C21, 11-(1-piperazinyl)-5H-dibenzo[b,e][1,4]diazepine]
- FOLD OVER BASAL [1]: 1.1 fold and 0.9 fold and 1 fold
- FOLD OVER BASAL [2]: 0.8 fold and 0.9 fold and 0.7 fold
- FOLD OVER BASAL [3]: 0.8 fold and 0.5 fold and 1 fold
- FOLD OVER BASAL [4]: 0.9 fold and 0.8 fold and 0.6 fold
- FOLD OVER BASAL [5]: 0.6 fold and 0.9 fold and 0.5 fold
- FOLD OVER BASAL [6]: 1.1 fold and 0.8 fold and 0.6 fold and 0.9 fold
- FOLD OVER BASAL [7]: 1.2 fold and 0.6 fold
- FOLD OVER BASAL [8]: 0.9 fold and 1.3 fold and 1 fold
- FOLD OVER BASAL [9]: 1 fold and 0.6 fold and 0.8 fold
- FOLD OVER BASAL [10]: 1.1 fold and 1 fold and 0.8 fold
- FOLD OVER BASAL [11]: 0.8 fold and 1.3 fold and 1.5 fold and 1.1 fold
- FOLD OVER BASAL [12]: 0.6 fold and 0.7 fold
- FOLD OVER BASAL [13]: 1.2 fold and 1.1 fold and 1.3 fold and 1.4 fold
- FOLD OVER BASAL [14]: 0.9 fold and 0.6 fold and 0.8 fold
- FOLD OVER BASAL [15]: 0.6 fold and 1 fold and 0.8 fold and 1.1 fold
- FOLD OVER BASAL [16]: 0.9 fold and 0.8 fold and 1.2 fold and 0.7 fold
- FOLD OVER BASAL [17]: 0.6 fold and 0.7 fold and 0.5 fold and 0.4 fold
- FOLD OVER BASAL [18]: 0.9 fold and 0.7 fold and 0.6 fold
- FOLD OVER BASAL [19]: 0.1 fold and 0.2 fold
- FOLD OVER BASAL [20]: 8.7 fold and 13.6 fold and 9.4 fold and 16.1 fold
- FOLD OVER BASAL [21]: 0.6 fold and 0.7 fold and 0.8 fold
- FOLD OVER BASAL [22]: 0.6 fold and 0.9 fold and 0.8 fold
- FOLD OVER BASAL [23]: 0.9 fold and 0.8 fold and 0.5 fold and 0.6 fold
- FOLD OVER BASAL [24]: 1 fold and 0.9 fold and 1.1 fold
- FOLD OVER BASAL [25]: 1.1 fold and 0.7 fold
- FOLD OVER BASAL [26]: 0.6 fold and 0.5 fold
- FOLD OVER BASAL [27]: 0.7 fold and 0.6 fold
- FOLD OVER BASAL [28]: 0.5 fold and 0.8 fold and 0.6 fold
- FOLD OVER BASAL [29]: 1 fold and 0.6 fold and 0.8 fold
- FOLD OVER BASAL [30]: 1 fold and 0.8 fold and 1.1 fold and 1.4 fold
- FOLD OVER BASAL [31]: 1.1 fold and 0.6 fold and 0.7 fold
- FOLD OVER BASAL [32]: 0.3 fold and 0.6 fold and 0.5 fold and 0.4 fold
- FOLD OVER BASAL [33]: 1.1 fold and 0.8 fold and 0.7 fold
- FOLD OVER BASAL [34]: 0.3 fold and 0.2 fold
